Experimental data: PubChem BioAssay (NCI)
“And” between values parts separate entries of the source, which are not always exact repeats. Equal values may be shown once.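 1) Cells in 96-well plates. 2) Compound, 48 h, 5 concentrations. 3) Linear interpolation between surrounding doses. 4) Unreached endpoint = highest concentration. GI50 = concentration required for 50% inhibition of growth. TGI: total growth inhibition.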

Columns and labels:
Test in all cases: NCI tumour cell line growth inhibition, 48 h
[1] = tested on: HL-60(TB) leukemia
[2] = tested on: HOP-62 NSCLC
[3] = tested on: MDA-MB-231 breast
[4] = tested on: NCI-H226 lung
[5] = tested on: NCI/ADR-RES ovarian
[6] = tested on: OVCAR-4 ovarian
[7] = tested on: OVCAR-5 ovarian
[8] = tested on: RPMI-8226 leukemia
[9] = tested on: SK-MEL-5 melanoma
[10] = tested on: T-47D breast
[11] = tested on: TK-10 renal
[12] = tested on: CCRF-CEM leukemia
[13] = tested on: LOX IMVI melanoma

SMILES	TGI [1]	TGI [2]	TGI [3]	TGI [4]	TGI [5]	TGI [6]	TGI [7]	TGI [8]	TGI [9]	TGI [10]	TGI [11]	TGI [12]	TGI [13]	GI50 [6]
NS(=O)(=O)c1nnc(NS(=O)(=O)c2ccccc2[N+](=O)[O-])s1	> 100 µM	> 100 µM	> 100 µM	> 100 µM	> 100 µM	> 100 µM	> 100 µM	> 100 µM	> 100 µM	> 100 µM	> 100 µM			
COC(=O)c1cc(CC2Cc3cc4c(cc3C2=O)CCC4)cc2c1CCC2 (configuration not stated)	> 100 µM	> 100 µM	> 100 µM	> 100 µM	> 100 µM	> 100 µM	> 100 µM	> 100 µM		> 100 µM	> 100 µM	> 100 µM	> 100 µM	
O=C(c1cscc1CCc1ccccc1)c1cscc1CCc1ccccc1		> 100 µM	> 100 µM	> 100 µM	> 100 µM	> 100 µM	> 100 µM	> 100 µM	> 100 µM	> 100 µM	> 100 µM	> 100 µM	> 100 µM	
CC(C)(C)OC(=O)N(O)[C@@H]1CC[C@H](n2cnc3c(N)ncnc32)C1		> 100 µM	> 100 µM	> 100 µM	> 100 µM	> 100 µM	> 100 µM	> 100 µM	> 100 µM	> 100 µM	> 100 µM	> 100 µM	> 100 µM	
CCCCN=NNc1cn(C2OC(CO)C(O)C2O)c(=O)[nH]c1=O (configuration not stated)	> 100 µM	> 100 µM	> 100 µM	> 100 µM	> 100 µM	> 100 µM	> 100 µM		> 100 µM	> 100 µM	> 100 µM	> 100 µM	> 100 µM	
N=c1oc2ccccc2cc1C(=O)Nc1cccc2ccccc12	> 100 µM	> 100 µM	> 100 µM	> 100 µM	> 100 µM	> 100 µM	> 100 µM	> 100 µM	> 100 µM	> 100 µM		> 100 µM	> 100 µM	
COC(=O)/C=C/CCC#Cc1ccccc1C#CCC/C=C/C(=O)OC	9.63 µM	> 100 µM	> 100 µM	> 100 µM	66.2 µM	> 100 µM	> 100 µM			97.9 µM	> 100 µM	24.3 µM	64 µM	
CCOC(=O)CN1C(=O)NC(C)(c2ccccc2)C1=O (configuration not stated)		> 100 µM	> 100 µM		> 100 µM	> 100 µM	> 100 µM	> 100 µM	> 100 µM	> 100 µM	> 100 µM	> 100 µM	> 100 µM	
CC(=O)OCC1OC(n2c(C)c(C(C)=O)c(-c3ccco3)c(C#N)c2=S)C(OC(C)=O)C(OC(C)=O)C1OC(C)=O (configuration not stated)	> 100 µM	> 100 µM	> 100 µM	> 100 µM	> 100 µM	> 100 µM	> 100 µM		> 100 µM	> 100 µM	> 100 µM	> 100 µM	> 100 µM	> 100 µM and 37.8 µM
C[C@@H]1S[C@H](c2c(F)cccc2Cl)n2c1nc1ccccc12		29.4 µM	27 µM	37 µM	31.4 µM	37 µM	> 100 µM	40.2 µM		79.5 µM	> 100 µM	42.6 µM	25.3 µM	
N#Cc1c(Cl)cc(C#N)n2c1nc1ccccc12	3.03 µM	44.1 µM	24 µM	71 µM	42.4 µM	41.9 µM	30.3 µM	17.2 µM	29.3 µM	11.1 µM	26.4 µM		7.02 µM	
CCCCCCCCOC(=O)C12Oc3ccc(-c4ccc5c(c4O)C(O)=C4C(=O)CC(C)C(O)C4(C(=O)OCCCCCCCC)O5)c(O)c3C(O)=C1C(=O)CC(C)C2O (configuration not stated)	9.61 µM		59.7 µM	> 100 µM	> 100 µM	> 100 µM	96.2 µM		48.7 µM	> 100 µM	> 100 µM	17.9 µM	> 100 µM	
CCOC(=O)[C@@H]1[C@@H](c2ccccc2)N(C)O[C@@]1(c1ccccc1)C(F)(F)F		> 100 µM	> 100 µM	> 100 µM	> 100 µM	> 100 µM	> 100 µM	> 100 µM	72.3 µM	> 100 µM	> 100 µM	60.7 µM	> 100 µM	
CNc1cc([N+](=O)[O-])ccc1C(=O)N1CCC[C@H]1CO	> 100 µM	> 100 µM	> 100 µM	> 100 µM	> 100 µM		> 100 µM	> 100 µM		> 100 µM	> 100 µM		> 100 µM	
CN1CCN(c2cc3nc(-c4ccc(Cl)cc4)[nH]c3cc2F)CC1		30.6 µM	60.8 µM	33.9 µM	67.6 µM	> 62.7 µM	48.9 µM	41.4 µM	35.5 µM	65.7 µM	15.4 µM	82.8 µM	> 65.6 µM	
CC1(C)CC[C@]2(C(=O)O)CC[C@]3(C)C(=CCC4=C5C[C@H](O)[C@H](O)[C@@](C)(CO)[C@@]5(C)CC[C@]43C)[C@@H]2C1	> 100 µM	> 100 µM	> 100 µM		> 100 µM	71.4 µM	> 100 µM	> 100 µM	62.8 µM	89.5 µM	> 100 µM	> 100 µM	> 100 µM	
CC1(C)Cc2c(sc3[nH]c(=S)[nH]c(=S)c23)CS1	92.7 µM	> 100 µM	> 100 µM	> 100 µM	> 100 µM	65.8 µM		68.5 µM	> 100 µM	61.4 µM	> 100 µM	> 100 µM	> 100 µM	
C=C1CN=C(Nc2ccc(Cl)cc2)S1	> 10 µM	> 100 µM	> 100 µM		> 100 µM	> 100 µM	> 100 µM	> 100 µM	> 100 µM	> 100 µM	> 100 µM	> 100 µM	> 100 µM	
CCO/C(O)=C(/C(=N)N1CCOCC1)C(=O)NC(C)C	> 100 µM	> 100 µM	> 100 µM	> 100 µM	> 100 µM	> 100 µM	> 100 µM	> 100 µM		> 100 µM	> 100 µM	> 100 µM	> 100 µM	
COCn1cc(C2=C(C)C(=O)C(C)=C(C)C2=O)cn1	24.3 µM	> 100 µM	40.8 µM	> 100 µM	59.3 µM	31.7 µM	> 100 µM	60.2 µM	> 100 µM	56.1 µM	> 100 µM	60.8 µM		
Cc1cc(N2CCOCC2)nc2ccc(Cc3ccc4nc(N5CCOCC5)cc(C)c4c3)cc12		> 100 µM	> 100 µM	> 100 µM	> 100 µM	> 100 µM	> 100 µM	> 100 µM	36.6 µM	52.2 µM	> 100 µM		> 100 µM	
O=c1[nH]c(=O)c2c([nH]1)[nH]c1ccc(Br)cc12	> 100 µM	> 100 µM	> 100 µM	> 100 µM	> 100 µM		> 100 µM	> 100 µM	> 100 µM	> 100 µM	> 100 µM	> 100 µM	> 100 µM	
CC(Br)CN1CCOCC1 (configuration not stated)	51.8 µM	> 100 µM	> 100 µM	> 100 µM	> 100 µM		> 100 µM	> 100 µM	> 100 µM	> 100 µM	> 100 µM		> 100 µM	
Clc1cccc(-c2nc3cccc4c3n2Cc2ncccc2-4)c1		> 100 µM	> 100 µM	> 100 µM	> 100 µM	> 100 µM	> 100 µM			> 100 µM	> 100 µM	> 100 µM		
O=S1SC(=S)C2C=CC=NC21 (configuration not stated)	> 100 µM		42.3 µM	56.4 µM	67.5 µM	> 100 µM	28.6 µM	> 100 µM	53.2 µM	58.9 µM	32.2 µM	> 100 µM	32.7 µM	
CC(=O)Nc1cc(Cl)cc(Cl)c1O	> 100 µM	> 100 µM	> 100 µM	> 100 µM	> 100 µM	> 100 µM	> 100 µM	> 100 µM	> 100 µM	> 100 µM	> 100 µM	> 100 µM		
CC(O)CNC(=O)Nc1c(C(F)(F)F)cc(-c2ccccc2)[nH]c1=O (configuration not stated)	1.54 µM	> 100 µM	> 100 µM	> 100 µM	> 100 µM	> 100 µM	> 100 µM		> 100 µM	> 100 µM	> 100 µM	> 100 µM	> 100 µM	
C=C1N(S(=O)(=O)c2ccc(C)cc2)C(=O)OCC12CCCC2	> 100 µM		> 100 µM	> 100 µM	> 100 µM	> 100 µM	> 100 µM	> 100 µM	94.6 µM	> 100 µM	> 100 µM	> 100 µM	> 100 µM	
S=C1NC2=C(CSC/C2=C\c2ccc(Cl)cc2)C(c2ccc(Cl)cc2)N1 (configuration not stated)	70.7 µM	> 100 µM	> 100 µM		> 100 µM	> 100 µM	> 100 µM	94.5 µM	37.3 µM	> 100 µM	> 100 µM	70.9 µM	> 100 µM	
